Measured values reported in US7420056B2, “Substituted bicyclic imidazo-3-ylamine compounds” (Gruenenthal GmbH, priority 2004, dated 2008).

Target: mGluR5 receptor (Sus scrofa, UniProt I3LUI7)
Test: Affinity for the mGluR5 receptor: inhibition of 3[H]-MPEP binding in pig brain homogenate
Details: for inhibition at 10 µM: 10 μM compound, 5 nM 3[H]-MPEP, read-out: mGluR5 receptor inhibition of ^3[H]-MPEP binding [10 μM] in % at a concentration of the example compounds of 10 μM
Method: 1. Method for Determining Affinity for the mGluR5 Receptor
Pig brain homogenate is produced by homogenisation (Polytron Pt 3000, Kinematica AG, 10,000 revolutions per minute for 90 seconds) of pig brain hemispheres without medulla, cerebellum and pons in a buffer of pH 8.0 (30 mM Hepes, Sigma, order number H3375+1 tablet Complete Roche Diagnostics, order number 1836145 made up to 100 ml) in a ratio of 1:20 (brain weight/volume) and differential centrifugation at 900×g and 40,000×g. 450 μg of protein from brain homogenate is incubated in each case in 250 μl incubation batches in 96-well microtitre plates with 5 nM 3[H]-MPEP (Tocris, order number R1212) (MPEP=2-methyl-6-[…]) and the compounds to be investigated (10 μM in the test) in the buffer (as above) at room temperature for 60 minutes.
The batches are then filtered with the assistance of a Brandel Cell Harvester (Brandel, Grade Robotic 9600) on Unifilter plates with glass filter mats (Perkin Elmer, order number 6005177) and then washed 3 times with buffer (as above) using 250 μl per sample. The filter plates are then dried for 60 minutes at 55° C. Then 30 μl of Ultima Gold™ scintillating material (Packard BioScience, order number 6013159) is added per well and after 3 hours the samples are measured using the β counter (Microbeta, Perkin Elmer). Nonspecific binding is determined by the addition of 10 μM MPEP (Tocris, order number 1212).

Sequence of mGluR5 receptor (I3LUI7 19-1212): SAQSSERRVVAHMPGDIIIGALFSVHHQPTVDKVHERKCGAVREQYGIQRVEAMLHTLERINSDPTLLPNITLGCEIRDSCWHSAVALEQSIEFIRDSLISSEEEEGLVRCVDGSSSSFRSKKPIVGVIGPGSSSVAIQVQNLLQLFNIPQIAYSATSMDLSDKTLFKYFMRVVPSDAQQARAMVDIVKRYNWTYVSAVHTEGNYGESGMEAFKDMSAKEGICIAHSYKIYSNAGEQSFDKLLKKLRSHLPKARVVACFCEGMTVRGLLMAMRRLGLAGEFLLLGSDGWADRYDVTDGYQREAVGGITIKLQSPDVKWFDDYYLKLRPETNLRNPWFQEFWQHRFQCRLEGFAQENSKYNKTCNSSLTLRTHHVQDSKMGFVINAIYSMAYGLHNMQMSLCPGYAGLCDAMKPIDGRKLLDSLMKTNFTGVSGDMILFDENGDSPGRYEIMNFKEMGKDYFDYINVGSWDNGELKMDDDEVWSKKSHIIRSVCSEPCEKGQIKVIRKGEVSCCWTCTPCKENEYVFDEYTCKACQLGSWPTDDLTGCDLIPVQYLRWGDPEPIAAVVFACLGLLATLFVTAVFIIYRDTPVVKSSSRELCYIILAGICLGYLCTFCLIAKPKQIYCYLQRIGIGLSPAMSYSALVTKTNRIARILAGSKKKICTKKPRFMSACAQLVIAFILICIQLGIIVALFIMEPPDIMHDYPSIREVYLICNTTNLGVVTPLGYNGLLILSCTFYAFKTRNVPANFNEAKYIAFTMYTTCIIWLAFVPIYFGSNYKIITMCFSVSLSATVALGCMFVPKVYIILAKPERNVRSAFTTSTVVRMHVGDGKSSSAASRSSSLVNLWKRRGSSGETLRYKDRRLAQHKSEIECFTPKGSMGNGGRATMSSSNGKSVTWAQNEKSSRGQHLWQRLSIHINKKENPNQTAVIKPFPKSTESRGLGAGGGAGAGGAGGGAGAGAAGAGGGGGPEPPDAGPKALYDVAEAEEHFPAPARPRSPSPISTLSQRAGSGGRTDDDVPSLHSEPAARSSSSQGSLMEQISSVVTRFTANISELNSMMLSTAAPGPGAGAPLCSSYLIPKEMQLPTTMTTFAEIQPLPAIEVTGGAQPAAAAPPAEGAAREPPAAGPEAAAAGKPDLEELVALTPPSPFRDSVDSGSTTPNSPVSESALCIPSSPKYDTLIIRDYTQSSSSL

Structure (SMILES)	inhibition at 10 µM	IC50 (3[H]-MPEP binding)
COc1ccc(CNc2c(-c3ccc(C#Cc4ccccc4)s3)nc3cccc(C)n23)cc1 [Example 10, (4-methoxy-benzyl)-[5-methyl-2-(5-phenylethynyl-thiophen-2-yl)-imidazo[1,2-a]pyridin-3-yl]-amine]	95%	–
COc1ccc(CNc2c(-c3ccc(C#Cc4ccccc4)s3)nc3ccc(C)cn23)cc1 [Example 11, (4-methoxy-benzyl)-[6-methyl-2-(5-phenylethynyl-thiophen-2-yl)-imidazo[1,2-a]pyridin-3-yl]-amine]	82%	–
COc1ccc(CNc2c(-c3ccc(C#Cc4ccccc4)s3)nc3cc(C)ccn23)cc1 [Example 12, (4-methoxy-benzyl)-[7-methyl-2-(5-phenylethynyl-thiophen-2-yl)-imidazo[1,2-a]pyridin-3-yl]-amine]	96%	–
COc1ccc(CNc2c(-c3ccc(C#Cc4ccccc4)s3)nc3c(C)cccn23)cc1 [Example 13, (4-methoxy-benzyl)-[8-methyl-2-(5-phenylethynyl-thiophen-2-yl)-imidazo[1,2-a]pyridin-3-yl]-amine]	96%	–
COc1ccc(CNc2c(-c3ccc(C#Cc4ccccc4)s3)nc3cc(C)cc(C)n23)cc1 [Example 14, [5,7-dimethyl-2-(5-phenylethynyl-thiophen-2-yl)-imidazo[1,2-a]pyridin-3-yl]-(4-methoxy-benzyl)-amine]	100%	–
COc1ccc(CNc2c(-c3ccc(C#Cc4ccccc4)s3)nc3c(OCc4ccccc4)cccn23)cc1 [Example 15, [8-benzyloxy-2-(5-phenylethynyl-thiophen-2-yl)-imidazo[1,2-a]pyridin-3-yl]-(4-methoxy-benzyl)-amine]	98%	–
COc1ccc(CNc2c(-c3ccc(C#Cc4ccccc4)s3)nc3ccccn23)cc1 [Example 16, (4-methoxy-benzyl)-[2-(5-phenylethynyl-thiophen-2-yl)-imidazo[1,2-a]pyridin-3-yl]-amine]	93%	–
COc1ccc(CNc2c(-c3ccc(C#Cc4ccccc4)s3)nc3cnccn23)cc1 [Example 17, (4-methoxy-benzyl)-[2-(5-phenylethynyl-thiophen-2-yl)-imidazo[1,2-a]pyrazin-3-yl]-amine]	96%	–
Cc1ccc2nc(-c3ccc(C#Cc4ccccc4)s3)c(NC(C)(C)C)n2c1 [Example 19, tert-butyl-[6-methyl-2-(5-phenylethynyl-thiophen-2-yl)-imidazo[1,2-a]pyridin-3-yl]-amine]	78%	–
COc1cccc(Nc2c(-c3ccc(C#Cc4ccccc4)s3)nc3c(OCc4ccccc4)cccn23)c1 [Example 20, [8-benzyloxy-2-(5-phenylethynyl-thiophen-2-yl)-imidazo[1,2-a]pyridin-3-yl]-(3-methoxy-phenyl)-amine]	79%	–
COc1cccc(CNc2c(-c3ccc(C#Cc4ccccc4)s3)nc3cccc(C)n23)c1 [Example 21, (3-methoxy-benzyl)-[5-methyl-2-(5-phenylethynyl-thiophen-2-yl)-imidazo[1,2-a]pyridin-3-yl]-amine]	91%	–
COc1cccc(CNc2c(-c3ccc(C#Cc4ccccc4)s3)nc3c(C)cccn23)c1 [Example 22, (3-methoxy-benzyl)-[8-methyl-2-(5-phenylethynyl-thiophen-2-yl)-imidazo[1,2-a]pyridin-3-yl]-amine]	84%	–
COc1cccc(CNc2c(-c3ccc(C#Cc4ccccc4)s3)nc3cc(C)cc(C)n23)c1 [Example 23, [5,7-dimethyl-2-(5-phenylethynyl-thiophen-2-yl)-imidazo[1,2-a]pyridin-3-yl]-(3-methoxy-benzyl)-amine]	86%	–
COc1cccc(CNc2c(-c3ccc(C#Cc4ccccc4)s3)nc3c(OCc4ccccc4)cccn23)c1 [Example 24, [8-benzyloxy-2-(5-phenylethynyl-thiophen-2-yl)-imidazo[1,2-a]pyridin-3-yl]-(3-methoxy-benzyl)-amine]	94%	–
COc1cccc(CNc2c(-c3ccc(C#Cc4ccccc4)s3)nc3ccccn23)c1 [Example 25, (3-methoxy-benzyl)-[2-(5-phenylethynyl-thiophen-2-yl)-imidazo[1,2-a]pyridin-3-yl]-amine]	81%	–
COc1cccc(CNc2c(-c3ccc(C#Cc4ccccc4)s3)nc3cnccn23)c1 [Example 26, (3-methoxy-benzyl)-[2-(5-phenylethynyl-thiophen-2-yl)-imidazo[1,2-a]pyrazin-3-yl]-amine]	97%	–
Cc1ccc2nc(-c3ccc(C#Cc4ccccc4)s3)c(NC(C)c3ccccc3)n2c1 (stereo not drawn) [Example 27, [6-methyl-2-(5-phenylethynyl-thiophen-2-yl)-imidazo[1,2-a]pyridin-3-yl]-(1-phenyl-ethyl)-amine]	82%	–

Second part, the compound after the results:

inhibition at 10 µM	IC50 (3[H]-MPEP binding)	Structure (SMILES)
52%	–	C(#Cc1ccc(-c2nc3cnccn3c2NC2CCCC2)s1)c1ccccc1 [Example 1, cyclopentyl-[2-(5-phenylethynyl-thiophen-2-yl)-imidazo[1,2-a]pyrazin-3-yl]-amine]
95%	–	Cc1cccc2nc(-c3ccc(C#Cc4ccccc4)s3)c(NCC3CCCCC3)n12 [Example 2, cyclohexylmethyl-[5-methyl-2-(5-phenylethynyl-thiophen-2-yl)-imidazo[1,2-a]pyridin-3-yl]-amine]
95%	–	Cc1ccc2nc(-c3ccc(C#Cc4ccccc4)s3)c(NCC3CCCCC3)n2c1 [Example 3, cyclohexylmethyl-[6-methyl-2-(5-phenylethynyl-thiophen-2-yl)-imidazo[1,2-a]pyridin-3-yl]-amine]
91%	–	Cc1ccn2c(NCC3CCCCC3)c(-c3ccc(C#Cc4ccccc4)s3)nc2c1 [Example 4, cyclohexylmethyl-[7-methyl-2-(5-phenylethynyl-thiophen-2-yl)-imidazo[1,2-a]pyridin-3-yl]-amine]
100%	–	Cc1cccn2c(NCC3CCCCC3)c(-c3ccc(C#Cc4ccccc4)s3)nc12 [Example 5, cyclohexylmethyl-[8-methyl-2-(5-phenylethynyl-thiophen-2-yl)-imidazo[1,2-a]pyridin-3-yl]-amine]
92%	–	Cc1cc(C)n2c(NCC3CCCCC3)c(-c3ccc(C#Cc4ccccc4)s3)nc2c1 [Example 6, cyclohexylmethyl-[5,7-dimethyl-2-(5-phenylethynyl-thiophen-2-yl)-imidazo[1,2-a]pyridin-3-yl]-amine]
89%	–	C(#Cc1ccc(-c2nc3c(OCc4ccccc4)cccn3c2NCC2CCCCC2)s1)c1ccccc1 [Example 7, [8-benzyloxy-2-(5-phenylethynyl-thiophen-2-yl)-imidazo[1,2-a]pyridin-3-yl]-cyclohexylmethyl-amine]
100%	–	C(#Cc1ccc(-c2nc3cnccn3c2NCC2CCCCC2)s1)c1ccccc1 [Example 8, cyclohexylmethyl-[2-(5-phenylethynyl-thiophen-2-yl)-imidazo[1,2-a]pyrazin-3-yl]-amine]
98%	–	C(#Cc1ccc(-c2nc3ncccn3c2NCC2CCCCC2)s1)c1ccccc1 [Example 9, cyclohexylmethyl-[2-(5-phenylethynyl-thiophen-2-yl)-imidazo[1,2-a]pyrimidin-3-yl]-amine]
–	64 nM	CC(C)(C)Nc1c(-c2ccc(C#Cc3ccccc3)s2)nc2cnccn12 [Example 18, tert-butyl-[2-(5-phenylethynyl-thiophen-2-yl)-imidazo[1,2-a]pyrazin-3-yl]-amine]
